# Results taken from patent US7528136B2, “Prolinamide derivatives as NK3 antagonists” (Hoffmann-La Roche Inc., priority 2007, dated 2009).
# Tested on: schizophrenia
# Test: not given
# Settings: phase II trial; altered behavior, delusion, hallucinations, extreme emotions, excited motor activity, incoherent speech; cited from earlier work
row,SMILES,activity on positive symptoms of schizophrenia
1,"CC(=O)N(C)C1(c2ccccc2)CCN(CCC[C@]2(c3ccc(Cl)c(Cl)c3)CCCN(C(=O)c3ccccc3)C2)CC1 [SR 142,801, Osanetant]",active

# Same assay, conditions: phase II trial; depression, anhedonia, social isolation, memory and attention deficits; cited from earlier work
row,SMILES,activity in the treatment of negative symptoms
1,"CC(=O)N(C)C1(c2ccccc2)CCN(CCC[C@]2(c3ccc(Cl)c(Cl)c3)CCCN(C(=O)c3ccccc3)C2)CC1 [SR 142,801, Osanetant]",inactive

# Target: T1, recombinant human NK3 receptor (Homo sapiens, UniProt P29371)
# T1 construct: expressed in transfected cells; host or cells: HEK293 cells (transient expression), membranes
# T1 sequence (P29371 1-465): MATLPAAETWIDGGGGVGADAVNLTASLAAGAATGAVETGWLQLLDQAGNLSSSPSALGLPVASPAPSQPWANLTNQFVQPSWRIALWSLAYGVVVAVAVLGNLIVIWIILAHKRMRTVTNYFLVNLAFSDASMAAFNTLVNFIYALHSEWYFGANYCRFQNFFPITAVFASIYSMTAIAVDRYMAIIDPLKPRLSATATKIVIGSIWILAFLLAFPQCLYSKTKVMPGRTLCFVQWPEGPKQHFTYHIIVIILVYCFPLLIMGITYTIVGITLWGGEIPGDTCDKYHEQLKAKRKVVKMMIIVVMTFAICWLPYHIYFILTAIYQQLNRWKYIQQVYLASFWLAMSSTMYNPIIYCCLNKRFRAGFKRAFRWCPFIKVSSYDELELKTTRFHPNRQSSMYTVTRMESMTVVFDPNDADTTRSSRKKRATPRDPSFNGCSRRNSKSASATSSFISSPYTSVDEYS
# Test: [3H]SR142801 competition binding assay
# Settings: [3H]SR142801, membranes from HEK293 cells transiently expressing hNK3; read-out: Data (hNK-3 receptor affinity)
# Procedure: [^3H]SR142801 Competition Binding Assay
# hNK3 receptor binding experiment were performed using [^3H]SR142801 (Catalog No. TRK1035, specific activity: 74.0 Ci/mmol, Amersham, GE Healthcare UK limited, Buckinghamshire, UK) and membrane isolated from HEK293 cells transiently expressing recombinant human NK3 receptor. After thawing, the membrane homogenates were centrifuged at 48,000×g for 10 min at 4° C., the pellets were resuspended in the 50 mM Tris-HCl, 4 mM MnCl2, 1 μM phosphoramidon, 0.1% BSA binding buffer at pH 7.4 to a final assay concentration of 5 μg protein/well. For inhibition experiments, membranes were incubated with [^3H]SR142801 at a concentration equal to KD value of radioligand and 10 concentrations of the inhibitory compound (0.0003-10 μM) (in a total reaction volume of 500 μl) for 75 min at room temperature (RT). At the end of the incubation, membranes were filtered onto unitfilter (96-well white microplate with bonded GF/C filter preincubated 1 h in 0.3% PEI+0.3% BSA, Packard BioScience, Meriden, Conn.) with a Filtermate 196 harvester (Packard BioScience) and washed 4 times with ice-cold 50 mM Tris-HCl, pH 7.4 buffer. Nonspecific binding was measured in the presence of 10 μM SB222200 for both radioligands. The radioactivity on the filter was counted (5 min) on a Packard Top-count microplate scintillation counter with quenching correction after addition of 45 μl of microscint 40 (Can berra Packard S. A., Zürich, Switzerland) and shaking for 1 h. Inhibition curves were fitted according to the Hill equation: y=100/(1+(x/IC50)^nH), where nH=slope factor using Excel-fit 4 software (Microsoft). IC50 values were derived from the inhibition curve and the affinity constant (Ki) values were calculated using the Cheng-Prussoff equation Ki=IC50/(1+[L]/KD) where [L] is the concentration of radioligand and KD is its dissociation constant at the receptor, derived from the saturation isotherm. All experiments were performed in duplicate and the mean±standard error (SEM) of the individual Ki values was calculated.
row,Ki,SMILES
1,0.0122 µM,"N#Cc1ccccc1N1CCN(C(=O)[C@@H]2C[C@H](NCc3ccc(F)cc3F)CN2Cc2ccccc2)CC1 [Example 1, 2-{4-[(2S,4S)-1-Benzyl-4-(2,4-difluoro-benzylamino)-pyrrolidine-2-carbonyl]-piperazin-1-yl}-benzonitrile]"
2,0.0376 µM,"O=C([C@@H]1C[C@H](NCc2ccc(F)cc2F)CN1Cc1ccccc1)N1CCN(c2cccc(C(F)(F)F)c2)CC1 [Example 5, [(2S,4S)-1-Benzyl-4-(2,4-difluoro-benzylamino)-pyrrolidin-2-yl]-[4-(3-trifluoromethyl-phenyl)-piperazin-1-yl]-methanone]"
3,0.063 µM,"O=C([C@@H]1C[C@H](NCc2ccc(F)cc2F)CN1Cc1ccccc1)N1CCN(c2ccccc2)CC1 [Example 7, [(2S,4S)-1-Benzyl-4-(2,4-difluoro-benzylamino)-pyrrolidin-2-yl]-(4-phenyl-piperazin-1-yl)-methanone]"
4,0.0648 µM,"O=C([C@@H]1C[C@H](NCc2ccc(F)cc2F)CN1Cc1ccccc1)N1CCN(c2ccc(F)cc2)CC1 [Example 8, [(2S,4S)-1-Benzyl-4-(2,4-difluoro-benzylamino)-pyrrolidin-2-yl]-[4-(4-fluoro-phenyl)-piperazin-1-yl]-methanone]"
5,0.0567 µM,"O=C([C@@H]1C[C@H](NCc2ccc(F)cc2F)CN1Cc1ccccc1)N1CCN(c2ccccc2Cl)CC1 [Example 10, [(2S,4S)-1-Benzyl-4-(2,4-difluoro-benzylamino)-pyrrolidin-2-yl]-[4-(2-chloro-phenyl)-piperazin-1-yl]-methanone]"
6,0.0235 µM,"COc1ccccc1N1CCN(C(=O)[C@@H]2C[C@H](NCc3ccc(F)cc3F)CN2Cc2ccccc2)CC1 [Example 12, [(2S,4S)-1-Benzyl-4-(2,4-difluoro-benzylamino)-pyrrolidin-2-yl]-[4-(2-methoxy-phenyl)-piperazin-1-yl]-methanone]"
7,0.0394 µM,"COc1cc2c(cc1OC)CN(C(=O)[C@@H]1C[C@H](NCc3ccc(F)cc3F)CN1Cc1ccccc1)CC2 [Example 13, [(2S,4S)-1-Benzyl-4-(2,4-difluoro-benzylamino)-pyrrolidin-2-yl]-(6,7-dimethoxy-3,4-dihydro-1H-isoquinolin-2-yl)-methanone]"
8,0.0644 µM,"CN(Cc1cc(C(F)(F)F)cc(C(F)(F)F)c1)[C@H]1C[C@@H](C(=O)N2CCN(c3ccccc3C#N)CC2)N(Cc2ccccc2)C1 [Example 32, 2-(4-{(2S,4S)-1-Benzyl-4-[(3,5-bis-trifluoromethyl-benzyl)-methyl-amino]-pyrrolidine-2-carbonyl}-piperazin-1-yl)-benzonitrile]"
9,0.044 µM,"COc1cc(CN[C@H]2C[C@@H](C(=O)N3CCN(c4ccccc4C#N)CC3)N(Cc3ccccc3)C2)cc(OC)c1 [Example 34, 2-{4-[(2S,4S)-1-Benzyl-4-(3,5-dimethoxy-benzylamino)-pyrrolidine-2-carbonyl]-piperazin-1-yl}-benzonitrile]"
10,0.0948 µM,"N#Cc1ccccc1N1CCN(C(=O)[C@@H]2C[C@H](NCc3ccccc3C(F)(F)F)CN2Cc2ccccc2)CC1 [Example 36, 2-{4-[(2S,4S)-1-Benzyl-4-(2-trifluoromethyl-benzylamino)-pyrrolidine-2-carbonyl]-piperazin-1-yl}-benzonitrile]"
11,0.058 µM,"N#Cc1ccccc1N1CCN(C(=O)[C@@H]2C[C@H](NCc3cc(C(F)(F)F)ccc3Cl)CN2Cc2ccccc2)CC1 [Example 38, 2-{4-[(2S,4S)-1-Benzyl-4-(2-chloro-5-trifluoromethyl-benzylamino)-pyrrolidine-2-carbonyl]-piperazin-1-yl}-benzonitrile]"
12,0.071 µM,"N#Cc1ccccc1N1CCN(C(=O)[C@@H]2C[C@H](NCc3cccc(Cl)c3)CN2Cc2ccccc2)CC1 [Example 40, 2-{4-[(2S,4S)-1-Benzyl-4-(3-chloro-benzylamino)-pyrrolidine-2-carbonyl]-piperazin-1-yl}-benzonitrile]"
13,0.0279 µM,"N#Cc1ccccc1N1CCN(C(=O)[C@@H]2C[C@H](NCc3ccc(F)c(Cl)c3)CN2Cc2ccccc2)CC1 [Example 45, 2-{4-[(2S,4S)-1-Benzyl-4-(3-chloro-4-fluoro-benzylamino)-pyrrolidine-2-carbonyl]-piperazin-1-yl}-benzonitrile]"
14,0.029 µM,"N#Cc1ccccc1N1CCN(C(=O)[C@@H]2C[C@H](NCc3ccc(Cl)c(Cl)c3)CN2Cc2ccccc2)CC1 [Example 48, 2-{4-[(2S,4S)-1-Benzyl-4-(3,4-dichloro-benzylamino)-pyrrolidine-2-carbonyl]-piperazin-1-yl}-benzonitrile]"
15,0.048 µM,"N#Cc1ccccc1N1CCN(C(=O)[C@@H]2C[C@H](NCc3cccc(Cl)c3F)CN2Cc2ccccc2)CC1 [Example 49, 2-{4-[(2S,4S)-1-Benzyl-4-(3-chloro-2-fluoro-benzylamino)-pyrrolidine-2-carbonyl]-piperazin-1-yl}-benzonitrile]"
16,0.047 µM,"N#Cc1ccccc1N1CCN(C(=O)C2CC(NCc3ccc(F)cc3F)CN2Cc2cccc(F)c2)CC1 (stereo not shown) [Example 54, 2-{4-[4-(2,4-Difluoro-benzylamino)-1-(3-fluoro-benzyl)-pyrrolidine-2-carbonyl]-piperazin-lyl}-benzonitrile]"
17,0.039 µM,"CN(Cc1cc(C(F)(F)F)cc(C(F)(F)F)c1)[C@H]1C[C@@H](C(=O)N2CCN(c3cccc(C(F)(F)F)c3)CC2)N(Cc2ccccc2)C1 [Example 62, {(2S,4S)-1-Benzyl-4-[(3,5-bis-trifluoromethyl-benzyl)-methyl-amino]-pyrrolidin-2-yl}-[4-(3-trifluoromethyl-phenyl)-piperazin-1-yl]-methanone]"
18,0.0412 µM,"CN(Cc1cc(C(F)(F)F)cc(C(F)(F)F)c1)[C@H]1C[C@@H](C(=O)N2CCN(c3cccc(C(F)(F)F)c3)CC2)N(Cc2cccc(Cl)c2)C1 [Example 68, [(2S,4S)-4-[(3,5-Bis-trifluoromethyl-benzyl)-methyl-amino]-1-(3-chloro-benzyl)-pyrrolidin-2-yl]-[4-(3-trifluoromethyl-phenyl)-piperazin-1-yl]-methanone]"
19,0.052 µM,"O=C([C@@H]1C[C@@H](NCc2ccc(F)cc2F)CN1Cc1ccccc1)N1CCN(c2cccc(C(F)(F)F)c2)CC1 [Example 87, [(2S,4R)-1-Benzyl-4-(2,4-difluoro-benzylamino)-pyrrolidin-2-yl]-[4-(3-trifluoromethyl-phenyl)-piperazin-1-yl]-methanone]"
20,0.097 µM,"N#Cc1ccccc1N1CCN(C(=O)[C@@H]2C[C@@H](NCc3ccc(F)cc3F)CN2Cc2ccccc2)CC1 [Example 88, 2-{4-[(2S,4R)-1-Benzyl-4-(2,4-difluoro-benzylamino)-pyrrolidine-2-carbonyl]-piperazin-1-yl}-benzonitrile]"
